# Key:
# [1] = Antiproliferative activity against human Z138 cells assessed as inhibition of cell viability after 5 days by Cell-Titer Glo assay; format: functional, cell-based; conditions: Z-138, 120 h
# PRMT5/MEP50 complex = PRMT5/MEP50 complex (Homo sapiens, UniProt O14744); assay: Inhibition of recombinant human fetal brain FLAG-tagged PRMT5/full length human testis 6His-tagged MEP50 expressed in baculovirus infected insect Sf9 cells using human histone H4 (1 to 15 residues) as substrate preincubated for 30 mins followed by [3H]-SAM addition
# [2] = molecular target: Protein arginine N-methyltransferase 5 (Homo sapiens, UniProt O14744); assay: Inhibition of PRMT5 in human Z138 cells assessed as decrease in di-methyl arginine levels after 96 hrs by Western blot method; format: cell-based
# Sequence of Protein arginine N-methyltransferase 5 (O14744 whole entry): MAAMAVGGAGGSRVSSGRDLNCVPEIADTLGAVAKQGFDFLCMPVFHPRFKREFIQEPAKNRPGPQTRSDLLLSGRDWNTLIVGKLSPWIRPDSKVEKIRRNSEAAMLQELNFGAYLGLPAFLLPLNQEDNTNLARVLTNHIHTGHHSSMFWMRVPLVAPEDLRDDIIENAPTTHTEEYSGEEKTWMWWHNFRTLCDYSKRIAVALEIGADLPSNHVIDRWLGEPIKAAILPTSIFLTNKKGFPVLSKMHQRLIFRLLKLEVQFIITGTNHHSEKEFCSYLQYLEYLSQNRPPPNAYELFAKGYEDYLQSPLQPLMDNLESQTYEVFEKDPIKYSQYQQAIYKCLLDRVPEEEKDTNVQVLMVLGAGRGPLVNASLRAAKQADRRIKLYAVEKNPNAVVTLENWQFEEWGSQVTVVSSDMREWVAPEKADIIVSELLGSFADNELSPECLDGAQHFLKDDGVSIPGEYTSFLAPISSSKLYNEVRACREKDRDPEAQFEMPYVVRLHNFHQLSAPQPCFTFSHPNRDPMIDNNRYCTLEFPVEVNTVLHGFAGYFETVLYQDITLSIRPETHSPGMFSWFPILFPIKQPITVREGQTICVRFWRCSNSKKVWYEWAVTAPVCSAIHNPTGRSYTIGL
# Sequence of PRMT5/MEP50 complex (O14744 whole entry, the tested form may be a part): as the sequence (O14744 whole entry) above
# Sequence of PRMT5/MEP50 complex (Q9BQA1 whole entry, further chain, the tested form may be a part): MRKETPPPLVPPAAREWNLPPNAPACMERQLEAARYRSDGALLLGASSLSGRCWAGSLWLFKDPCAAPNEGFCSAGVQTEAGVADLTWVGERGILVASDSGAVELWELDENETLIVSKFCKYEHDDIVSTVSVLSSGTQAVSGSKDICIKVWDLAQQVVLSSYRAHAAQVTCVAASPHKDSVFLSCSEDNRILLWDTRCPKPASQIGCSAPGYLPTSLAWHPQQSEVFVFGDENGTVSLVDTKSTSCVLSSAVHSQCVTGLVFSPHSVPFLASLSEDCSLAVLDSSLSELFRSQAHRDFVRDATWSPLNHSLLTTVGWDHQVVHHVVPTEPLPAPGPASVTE
Structure (SMILES),EC50 [1] [µM],IC50 (PRMT5/MEP50 complex) [nM],EC50 [2] [nM]
C[C@@H](Oc1cccc2cccnc12)C(=O)NC[C@H](O)CN1CCc2ccccc2C1,0.101 to 1,< 100,< 100
O=C(COc1cccc2c1CCCC2)NCC(O)CN1CCc2ccccc2C1 (configuration not stated),1 to 10,< 100,101 to 1000
COc1ccc2cccc(OCC(=O)NC[C@@H](O)CN3CCc4ccccc4C3)c2n1,1 to 10,< 100,< 100
O=C(COc1ccccc1S(=O)(=O)N1CCC(O)C1)NCC(O)CN1CCc2ccccc2C1 (configuration not stated),0.101 to 1,< 100,< 100
O=C(COc1ccccc1N1CCOCC1)NC[C@H](O)CN1CCc2ccccc2C1,1 to 10,< 100,< 100
O=C(COc1ccccc1C1CCNCC1)NCC(O)CN1CCc2ccccc2C1 (configuration not stated),> 20,< 100,101 to 1000
NS(=O)(=O)c1ccccc1OCC(=O)NCC(O)CN1CCc2ccccc2C1 (configuration not stated),1 to 10,< 100,101 to 1000
CN(C)C(=O)c1ccccc1OCC(=O)NCC(O)CN1CCc2ccccc2C1 (configuration not stated),10 to 50,101 to 1000,101 to 1000
O=C(COc1ccccc1S(=O)(=O)N1CCCC1)NCC(O)CN1CCc2ccccc2C1 (configuration not stated),0.101 to 1,< 100,< 100
O=C(COc1ccccc1N1CCOCC1)NCC(O)CN1CCc2ccccc2C1 (configuration not stated),1 to 10,< 100,101 to 1000
NC(=O)c1ccccc1OCC(=O)NCC(O)CN1CCc2ccccc2C1 (configuration not stated),> 20,101 to 1000,101 to 1000
CC(=O)Nc1cccc(OCC(=O)NCC(O)CN2CCc3ccccc3C2)c1 (configuration not stated),10 to 50,1000 to 10000,101 to 1000
CN1CCN(c2ccccc2OCC(=O)NC[C@H](O)CN2CCc3ccccc3C2)CC1,1 to 10,< 100,101 to 1000
O=C(COc1cccc2cccnc12)NC[C@@H](O)CN1CCc2ccccc2C1,0.101 to 1,< 100,< 100
O=C(COc1cccc2cccnc12)NC[C@H](O)CN1CCc2ccccc2C1,10 to 50,101 to 1000,101 to 1000
O=C(COc1cccc(CN2CCOCC2)c1)NCC(O)CN1CCc2ccccc2C1 (configuration not stated),1 to 10,< 100,< 100
CN(C)c1ccc2cccc(OCC(=O)NC[C@H](O)CN3CCc4ccccc4C3)c2n1,> 20,101 to 1000,1000 to 10000

Structure (SMILES),EC50 [1] [µM],IC50 (PRMT5/MEP50 complex) [nM],EC50 [2] [nM]
CS(=O)(=O)Nc1ccc(OCC(=O)NCC(O)CN2CCc3ccccc3C2)cc1 (configuration not stated),> 20,101 to 1000,101 to 1000
CS(=O)(=O)Nc1ccccc1OCC(=O)NCC(O)CN1CCc2ccccc2C1 (configuration not stated),1 to 10,< 100,101 to 1000
O=C(COc1cccc(NC2CCOCC2)c1)NCC(O)CN1CCc2ccccc2C1 (configuration not stated),1 to 10,< 100,< 100
O=C(COc1ccccc1-c1cc[nH]n1)NCC(O)CN1CCc2ccccc2C1 (configuration not stated),1 to 10,< 100,< 100
COc1ccc2cccc(OCC(=O)NC[C@H](O)CN3CCc4ccccc4C3)c2n1,1 to 10,101 to 1000,101 to 1000
CN(C)c1ccc(OCC(=O)NCC(O)CN2CCc3ccccc3C2)cc1 (configuration not stated),10 to 50,101 to 1000,101 to 1000
CN1CCC(n2ncc3cc(OCC(=O)NCC(O)CN4CCc5ccccc5C4)ccc32)C1 (configuration not stated),10 to 50,< 100,101 to 1000
CNC(=O)c1ccccc1OCC(=O)NCC(O)CN1CCc2ccccc2C1 (configuration not stated),> 20,101 to 1000,101 to 1000
C[C@@H](Oc1cccc2cccnc12)C(=O)NC[C@@H](O)CN1CCc2ccccc2C1,1 to 10,< 100,101 to 1000
NC(=O)c1cccc(OCC(=O)NCC(O)CN2CCc3ccccc3C2)c1 (configuration not stated),10 to 50,101 to 1000,101 to 1000
CC(Oc1cccc2cccnc12)C(=O)NCC(O)CN1CCc2ccccc2C1 (configuration not stated),0.101 to 1,< 100,< 100
CN1CCN(S(=O)(=O)c2ccccc2OCC(=O)NCC(O)CN2CCc3ccccc3C2)CC1 (configuration not stated),10 to 50,< 100,101 to 1000
O=C(COc1ccc2cnn(C3CCNCC3)c2c1)NCC(O)CN1CCc2ccccc2C1 (configuration not stated),> 20,< 100,101 to 1000
CN(C)c1ccc2cccc(OCC(=O)NC[C@@H](O)CN3CCc4ccccc4C3)c2n1,1 to 10,< 100,101 to 1000
O=C(COc1ccccc1N1CCNCC1)NCC(O)CN1CCc2ccccc2C1 (configuration not stated),1 to 10,< 100,101 to 1000
CN(C)c1cccc(OCC(=O)NCC(O)CN2CCc3ccccc3C2)c1 (configuration not stated),1 to 10,< 100,101 to 1000
O=C(COc1cccc2nccnc12)NCC(O)CN1CCc2ccccc2C1 (configuration not stated),1 to 10,< 100,< 100

# Source: ChEMBL document CHEMBL3879915, “Methods of inhibiting PRMT5” (2014)
